Measured values published in US7897627B2, “Heteroaryl derivatives as orexin receptor antagonists” (Hoffmann-La Roche Inc., priority 2007, dated 2011).

Molecular target: T1, human orexin-2 (hOX2) receptor (Homo sapiens, UniProt O43614)
T1 construct: expressed in transfected cells
T1 sequence (O43614 1-444): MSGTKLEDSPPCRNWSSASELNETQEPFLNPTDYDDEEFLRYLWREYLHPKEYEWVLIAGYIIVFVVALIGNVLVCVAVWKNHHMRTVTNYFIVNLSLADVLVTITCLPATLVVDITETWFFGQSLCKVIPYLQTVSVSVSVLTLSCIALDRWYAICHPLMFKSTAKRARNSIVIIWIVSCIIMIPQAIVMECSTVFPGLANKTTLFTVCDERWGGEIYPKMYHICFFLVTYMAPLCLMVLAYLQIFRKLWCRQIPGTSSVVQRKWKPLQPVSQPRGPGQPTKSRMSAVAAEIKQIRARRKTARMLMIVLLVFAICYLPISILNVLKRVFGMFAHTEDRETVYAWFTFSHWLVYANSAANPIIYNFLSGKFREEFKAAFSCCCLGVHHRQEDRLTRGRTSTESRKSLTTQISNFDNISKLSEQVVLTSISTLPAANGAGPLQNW
Assay: Intracellular Ca2+ mobilization assay (FLIPR), CHO(dHFr-) cells expressing hOX2, orexin-A as agonist
Format: cell-based
Conditions: antagonist Kb=IC50/(1+[A]/EC50); orexin-A at EC80; CHO(dHFr-)-OX2R cells; antagonist applied 25 min before agonist
Procedure: Intracellular Ca^2+ Mobilization Assay
The Chinese Hamster Ovary (dHFr-) mutant cell line stably expressing human orexin-1 (hOX1) or human orexin-2 (hOX2) receptors were maintained in Dulbecco's Modified Eagle Medium (1×) with GlutaMax™1, 4500 mg/L D-Glucose and Sodium Pyruvate (Catalog No. 31966-021, Invitrogen, Carlsbad, Calif.), 5% dialyzed fetal calf serum (Catalog No. 26400-044), 100 μg/ml penicillin and 100 μg/ml streptomycin. The cells were seeded at 5×10^4 cells/well in the poly-D-lysine treated, 96-well, black/clear-bottomed plates (Catalog No. BD356640, BD Biosciences, Palo Alto, Calif.). 24 h later, the cells were loaded for 1 h at 37° C. with 4 μM Flou-4 acetoxymethyl ester (Catalog No. F-14202, Molecular Probes, Eugene, Oreg.) in FLIPR buffer (1×HBSS, 20 mM HEPES, 2.5 mM Probenecid). Hanks' Balanced Salt Solution (HBSS) (10×) (catalog No. 14065-049) and HEPES (1M) (catalog No. 15630-056) were purchased from Invitrogen, Carlsbad, Calif. Probenecid (250 mM) (catalog No. P8761) was from Sigma, Buchs, Switzerland. The cells were washed five times with FLIPR buffer to remove excess dye and intracellular calcium mobilization, [Ca^2−]i were measured using a Fluorometric Imaging Plate Reader (FLIPR-96, Molecular Devices, Menlo Park, Calif.) as described previously (Malherbe et al., Mol. Pharmacol., 64, 823-832, 2003). Orexin A (catalog No. 1455, Toris Cookson Ltd, Bristol, UK) was used as agonist. Orexin A ([…] stock solution in DMSO) was diluted in FLIPR buffer+0.1% BSA. The EC50 and EC80 values of orexin-A were measured daily from standard agonist concentration-response curves in CHO(dHFr-)-OX1R and -OX2R cell lines. All compounds were dissolved in 100% DMSO. Inhibition curves were determined by addition of 11 concentrations (0.0001-10 μM) of inhibitory compounds and using EC80 value of orexin-A as agonist (a concentration which gave 80% of max agonist response, determined daily). The antagonists were applied 25 min (incubation at 37° C.) before the application of the agonist. Responses were measured as peak increase in fluorescence minus basal, normalized to the maximal stimulatory effect induced by EC80 value of orexin-A or orexin-B. Inhibition curves were fitted according to the Hill equation: y=100/(1+(x/IC50)^nH), where nH=slope factor using Excel-fit 4 software (Microsoft).
Kb values were calculated according to the following equation Kb=IC50/(1+[A]/EC50) where A is the concentration of agonist added which is very close to agonist EC80 value, and IC50 and EC50 values were derived from the antagonist inhibition and orexin-A or B agonist curves, respectively.

| Kb [µM] | SMILES |
| --- | --- |
| 0.0228 | Cc1onc(-c2ccccc2)c1C(=O)N1CC[C@@H](Nc2nc3cc(F)cc(F)c3s2)C1 [Example 134, [(R)-3-(5,7-Difluoro-benzothiazol-2-ylamino)-pyrrolidin-1-yl]-(5-methyl-3-phenyl-isoxazol-4-yl)-methanone] |
| 0.0394 | Cc1noc(-c2ccccc2C(=O)N2CC[C@@H](Nc3nc4cc(F)cc(F)c4s3)C2)n1 [Example 135, [(R)-3-(5,7-Difluoro-benzothiazol-2-ylamino)-pyrrolidin-1-yl]-[2-(3-methyl-[1,2,4]oxadiazol-5-yl)-phenyl]-methanone] |
| 0.0138 | O=C(c1ccccc1OC(F)(F)C(F)F)N1CC[C@@H](Nc2nc3cccc(F)c3o2)C1 [Example 141, [(R)-3-(7-Fluoro-benzooxazol-2-ylamino)-pyrrolidin-1-yl]-[2-(1,1,2,2-tetrafluoro-ethoxy)-phenyl]-methanone] |
| 0.0386 | O=C(c1ccccc1OC(F)(F)F)N1CC[C@@H](Nc2nc3ccc(F)c(F)c3o2)C1 [Example 148, [(R)-3-(6,7-Difluoro-benzooxazol-2-ylamino)-pyrrolidin-1-yl]-(2-trifluoromethoxy-phenyl)-methanone] |
| 0.0072 | O=C(c1ccccc1OC(F)(F)C(F)F)N1CC[C@@H](Nc2nc3ccc(F)c(F)c3o2)C1 [Example 149, [(R)-3-(6,7-Difluoro-benzooxazol-2-ylamino)-pyrrolidin-1-yl]-[2-(1,1,2,2-tetrafluoro-ethoxy)-phenyl]-methanone] |
| 0.0136 | Cc1ccc(C(F)(F)F)c(C(=O)N2CC[C@@H](Nc3nc4ccc(F)c(F)c4o3)C2)c1 [Example 150, [(R)-3-(6,7-Difluoro-benzooxazol-2-ylamino)-pyrrolidin-1-yl]-(5-methyl-2-trifluoromethyl-phenyl)-methanone] |
| 0.0355 | Cc1onc(-c2ccccc2)c1C(=O)N1CC[C@@H](Nc2nc3ccc(F)c(F)c3o2)C1 [Example 151, [(R)-3-(6,7-Difluoro-benzooxazol-2-ylamino)-pyrrolidin-1-yl]-(5-methyl-3-phenyl-isoxazol-4-yl)-methanone] |
| 0.0304 | Cc1nc(C(=O)N2CC[C@@H](Nc3nc4ccc(F)c(F)c4o3)C2)c(-c2ccccc2)s1 [Example 155, [(R)-3-(6,7-Difluoro-benzooxazol-2-ylamino)-pyrrolidin-1-yl]-(2-methyl-5-phenyl-thiazol-4-yl)-methanone] |
| 0.0247 | O=C(c1ccccc1OC(F)(F)F)N1CC[C@@H](Nc2nc3ccc(F)cc3o2)C1 [Example 157, [(R)-3-(6-Fluoro-benzooxazol-2-ylamino)-pyrrolidin-1-yl]-(2-trifluoromethoxy-phenyl)-methanone] |
| 0.0039 | O=C(c1ccccc1OC(F)(F)C(F)F)N1CC[C@@H](Nc2nc3ccc(F)cc3o2)C1 [Example 158, [(R)-3-(6-Fluoro-benzooxazol-2-ylamino)-pyrrolidin-1-yl]-[2-(1,1,2,2-tetrafluoro-ethoxy)-phenyl]-methanone] |
| 0.0205 | Cc1ccc(C(F)(F)F)c(C(=O)N2CC[C@@H](Nc3nc4ccc(F)cc4o3)C2)c1 [Example 159, [(R)-3-(6-Fluoro-benzooxazol-2-ylamino)-pyrrolidin-1-yl]-(5-methyl-2-trifluoromethyl-phenyl)-methanone] |
| 0.047 | Cc1nc(C(=O)N2CC[C@@H](Nc3nc4ccc(F)cc4o3)C2)c(-c2ccccc2)s1 [Example 164, [(R)-3-(6-Fluoro-benzooxazol-2-ylamino)-pyrrolidin-1-yl]-(2-methyl-5-phenyl-thiazol-4-yl)-methanone] |
| 0.0185 | O=C(c1ccccc1C(F)(F)F)N1CC[C@@H](Nc2cnc3cc(F)c(F)cc3n2)C1 [Example 165, [(R)-3-(6,7-Difluoro-quinoxalin-2-ylamino)-pyrrolidin-1-yl]-(2-trifluoromethyl-phenyl)-methanone] |

The next lines start with the compound.

| SMILES | Kb [µM] |
| --- | --- |
| O=C(c1ccccc1OC(F)(F)F)N1CC[C@@H](Nc2nc3ccc(F)cc3s2)C1 [Example 113, [(R)-3-(6-Fluoro-benzothiazol-2-ylamino)-pyrrolidin-1-yl]-(2-trifluoromethoxy-phenyl)-methanone] | 0.0217 |
| O=C(c1ccccc1OC(F)(F)C(F)F)N1CC[C@@H](Nc2nc3ccc(F)cc3s2)C1 [Example 114, [(R)-3-(6-Fluoro-benzothiazol-2-ylamino)-pyrrolidin-1-yl]-[2-(1,1,2,2-tetrafluoro-ethoxy)-phenyl]-methanone] | 0.002 |
| Cc1ccc(C(F)(F)F)c(C(=O)N2CC[C@@H](Nc3nc4ccc(F)cc4s3)C2)c1 [Example 115, [(R)-3-(6-Fluoro-benzothiazol-2-ylamino)-pyrrolidin-1-yl]-(5-methyl-2-trifluoromethyl-phenyl)-methanone] | 0.0068 |
| Cc1onc(-c2ccccc2)c1C(=O)N1CC[C@@H](Nc2nc3ccc(F)cc3s2)C1 [Example 116, [(R)-3-(6-Fluoro-benzothiazol-2-ylamino)-pyrrolidin-1-yl]-(5-methyl-3-phenyl-isoxazol-4-yl)-methanone] | 0.0261 |
| Cc1noc(-c2ccccc2C(=O)N2CC[C@@H](Nc3nc4ccc(F)cc4s3)C2)n1 [Example 117, [(R)-3-(6-Fluoro-benzothiazol-2-ylamino)-pyrrolidin-1-yl]-[2-(3-methyl-[1,2,4]oxadiazol-5-yl)-phenyl]-methanone] | 0.0197 |
| Cc1ccc(Cl)c(C(=O)N2CC[C@@H](Nc3nc4ccc(F)cc4s3)C2)c1 [Example 118, (2-Chloro-5-methyl-phenyl)-[(R)-3-(6-fluoro-benzothiazol-2-ylamino)-pyrrolidin-1-yl]-methanone] | 0.039 |
| Cc1nc(C(=O)N2CC[C@@H](Nc3nc4ccc(F)cc4s3)C2)c(-c2ccccc2)s1 [Example 120, [(R)-3-(6-Fluoro-benzothiazol-2-ylamino)-pyrrolidin-1-yl]-(2-methyl-5-phenyl-thiazol-4-yl)-methanone] | 0.0188 |
| O=C(c1ccccc1OC(F)(F)F)N1CC[C@@H](Nc2nc3c(F)cccc3s2)C1 [Example 122, [(R)-3-(4-Fluoro-benzothiazol-2-ylamino)-pyrrolidin-1-yl]-(2-trifluoromethoxy-phenyl)-methanone] | 0.0193 |
| O=C(c1ccccc1OC(F)(F)C(F)F)N1CC[C@@H](Nc2nc3c(F)cccc3s2)C1 [Example 123, [(R)-3-(4-Fluoro-benzothiazol-2-ylamino)-pyrrolidin-1-yl]-[2-(1,1,2,2-tetrafluoro-ethoxy)-phenyl]-methanone] | 0.0032 |
| Cc1ccc(C(F)(F)F)c(C(=O)N2CC[C@@H](Nc3nc4c(F)cccc4s3)C2)c1 [Example 124, [(R)-3-(4-Fluoro-benzothiazol-2-ylamino)-pyrrolidin-1-yl]-(5-methyl-2-trifluoromethyl-phenyl)-methanone] | 0.0363 |
| Cc1noc(-c2ccccc2C(=O)N2CC[C@@H](Nc3nc4c(F)cccc4s3)C2)n1 [Example 126, [(R)-3-(4-Fluoro-benzothiazol-2-ylamino)-pyrrolidin-1-yl]-[2-(3-methyl-[1,2,4]oxadiazol-5-yl)-phenyl]-methanone] | 0.0144 |
| O=C(c1ccccc1OC(F)(F)C(F)F)N1CC[C@@H](Nc2nc3cc(F)cc(F)c3s2)C1 [Example 132, [(R)-3-(5,7-Difluoro-benzothiazol-2-ylamino)-pyrrolidin-1-yl]-[2-(1,1,2,2-tetrafluoro-ethoxy)-phenyl]-methanone] | 0.016 |
